Measured values reported in paper PMC7126984 (International Journal of Antimicrobial Agents, 2008).
≈ marks a conversion by molar mass, not a printed value.

Tests used:
[1] = MTT cytotoxicity test in HL-CZ cells; settings: human, HL-CZ promonocyte cells
rhinovirus = settings: cited from earlier work
[2] = test system: human protein kinase R (PKR) mRNA; assay: Real-time RT-PCR of PKR mRNA in HL-CZ cells; format: cell-based; settings: 1 μg/mL, normalised to GAPDH, vs untreated cells
[3] = test system: nitric oxide (NO) production; assay: NO production by DAF-2 DA fluorescence in HL-CZ cells; format: cell-based, human; settings: compared with the control and shikonin
[4] = test system: interferon-stimulated response element (ISRE) promoter; assay: Dual-luciferase cis-reporter assay pISRE-Luc in HL-CZ cells; format: cell-based, human; settings: 1 μg/mL, 4 h, normalised by Renilla luciferase, vs untreated cells
[5] = test system: Japanese encephalitis virus (JEV) strain T1P1; assay: Plaque reduction assay, JEV in TE-671 cells; settings: for TI (ratio of CC50 to IC50): JEV, TE-671 cells; for IC50: Japanese encephalitis virus; for inhibition of JEV replication in cell culture assay: dose-dependent plaque reduction assay
enterovirus 71 (EV71) [6] = assay: Plaque reduction assay, EV71 in HL-CZ cells
[7] = test system: Japanese encephalitis virus (JEV) strain T1P1; assay: Plaque reduction assay, JEV in HL-CZ cells; settings: for TI (ratio of CC50 to IC50): JEV, HL-CZ cells; for IC50: Japanese encephalitis virus, 48 h
IFNα expression = assay: ELISA for detection of IFNα expression in TE-671 cells; format: cell-based, human; settings: 48 h incubation
[8] = test system: 2′,5′-oligoadenylate synthetase (OAS) mRNA; assay: Real-time RT-PCR of OAS mRNA in HL-CZ cells; format: cell-based, human; settings: 1 μg/mL, normalised to GAPDH, vs untreated cells
enterovirus 71 (EV71) [9] = assay: Plaque reduction assay, EV71 in TE-671 cells; settings: for IC50: Enterovirus A
[10] = MTT cytotoxicity test in TE-671 cells; settings: human, TE-671 medulloblastoma cells
[11] = test system: gamma-activated sequence (GAS) promoter; assay: Dual-luciferase cis-reporter assay pGAS-Luc in HL-CZ cells; format: cell-based, human; settings: 1 μg/mL, 4 h, normalised by Renilla luciferase, vs untreated cells
[12] = test system: TE-671 medulloblastoma cells; assay: MTT cytotoxicity test in TE-671 cells; settings: TE-671 cells, 48 h treatment, MTT assay
[13] = 1 μg/mL, TE-671 and HL-CZ cells, 12, 24 and 48 h

Row | Compound | CC50 at 48 h [1] [µg/mL] | increase of PKR mRNA [2] [fold] | NO production (DAF signal) [3] | increase of promoter activity of pISRE-Luc [4] | TI (ratio of CC50 to IC50) [5] | IC50 ([5]; TE-671, 48 h) [µg/mL] | inhibition of JEV replication in cell culture assay [5] | TI (ratio of CC50 to IC50) [7] | IC50 [7] [µg/mL] | level of IFNα expression, dose dependence (IFNα expression) | increase of OAS mRNA [8] [fold] | CC50 at 48 h [10] [µg/mL] | increase of promoter activity of pGAS-Luc [11] [fold] | other results
1 | O=C1c2cccc(O)c2C(=O)c2c(O)cc(CO)cc21 [Aloe-emodin, 1,8-dihydroxy-3-hydroxymethyl-anthraquinone] | 2880 (≈ 10700 µM) | 1294.4 | greater DAF signal | ca. 2.14 fold | 1743 | 1.51 ± 0.05 (≈ 5.59 µM) | dose-dependent inhibition | 5762 | 0.5 ± 0.02 (≈ 1.85 µM) | dose-dependent increase | 8.6 | 2630 (≈ 9740 µM) | ~2.03 | antiviral effect on the replication of rhinovirus (rhinovirus): no antiviral effect; time-dependent inhibition of JEV replication [5, 13]: significantly inhibited; IC50 ([5]; TE-671, read-out: IC50 for JEV): 0.5 to 1.51 µg/mL (≈ 1.85 to 5.59 µM); therapeutic index (TI) for anti-JEV activity ([5]; over TE-671 and HL-CZ cells): > 1500; TI (ratio of CC50 to IC50) (enterovirus 71 (EV71) [6]; EV71, HL-CZ cells): 5540; IC50 (enterovirus 71 (EV71) [6]; Enterovirus A, EV71, 48 h): 0.52 ± 0.03 µg/mL (≈ 1.92 µM); increase in IFNα expression (IFNα expression): 2.5 fold; time-dependent inhibition of EV71 replication (enterovirus 71 (EV71) [9]; [13]): significantly inhibited; TI (ratio of CC50 to IC50) (enterovirus 71 (EV71) [9]; EV71, TE-671 cells): 18 800; IC50 (enterovirus 71 (EV71) [9]; EV71, TE-671, 48 h): 0.14 ± 0.04 µg/mL (≈ 0.518 µM); IC50 (enterovirus 71 (EV71) [9]; EV71, TE-671, read-out: IC50 for EV71): 0.14 to 0.52 µg/mL (≈ 0.518 to 1.92 µM); therapeutic index (TI) for anti-EV71 activity (enterovirus 71 (EV71) [9]; over TE-671 and HL-CZ cells): > 5000
2 | COC(=O)C1=CCCN(C)C1 [Arecoline, arecoline] | > 3000 |  | greater DAF signal |  | >92.3 | 32.5 ± 0.4 (≈ 209 µM) | dose-dependent inhibition | >285.7 | 10.5 ± 0.3 (≈ 67.7 µM) | dose-dependent increase |  | > 3000 | 1.8 | 
3 | O.Oc1cc(O)c2c(c1)O[C@H](c1ccc(O)c(O)c1)[C@@H](O)C2 [Catechin, catechin] |  |  |  |  |  |  |  |  |  |  |  |  |  | CC50 [12]: >3000 µg/mL
4 | COc1ccc([C@@H]2CC(=O)c3c(O)cc(O)cc3O2)cc1O [Hesperetin, hesperetin] |  |  |  |  | 159 | 3.6 ± 0.5 (≈ 11.9 µM) |  |  |  |  |  | 574 (≈ 1900 µM) |  | 
5 | CC(C)=CC[C@@H](O)C1=CC(=O)c2c(O)ccc(O)c2C1=O [Shikonin, shikonin] | > 3000 | 1087 |  | ca. 1.2 fold | 835.2 | 2.1 ± 0.5 (≈ 7.28 µM) | dose-dependent inhibition | >2500 | 1.2 ± 0.2 (≈ 4.16 µM) | dose-dependent increase | 5 | 1750 (≈ 6080 µM) |  | 
